Assay [1] relates to Staphylococcus aureus reporter strains of agr (types I-IV: AH1677, AH430, AH1747, AH1872). As to the kind of experiment: Quorum quenching assay with agr P3-YFP reporter strains (fluorescence). Type of assay: cell-based. To be noted: read-out: IC50 for inhibition of fluorescence across agr reporter strains. The source says:
Hydroperoxy-cycloartanes were isolated from the methanolic extract of the leaves of Castanea sativa, a substantial, long-lived deciduous tree that produces an edible seed, the chestnut. 224C-F2c-PF42-SF6 is a mixture of a cycloartane with a hydroperoxy group at the terminus of its alkyl chain and a carboxylic acid and methyl group replacing the gem-dimethyl group (1a) and a cycloartane with a terminal alkene and carboxylic acid in the S configuration at C24 (1b). 224C-F2c-PF42-SF7 is a cycloartane with a terminal alkene and carboxylic acid in the R configuration at C24 (2). […] The compounds 2 and SF6 were evaluated for the ability to inhibit fluorescence of Staphylococcus aureus reporter strains of agr, the main gene regulating quorum sensing. Additionally, 2 and SF6 were evaluated for cytotoxicity against human immortalized keratinocytes (HaCaT).
After eluting from the column, 224C-F2 was split into parts a-d. […] A screen against S. aureus reporter strains of AIP-induced agr:P3 activation representing all four agr subtypes functioned as a preliminary readout of quorum sensing inhibition and the bioassay which guided fractionation. […]

Assay [2] deals with Staphylococcus aureus reporter strain of agr I expression (AH1677). Briefly: agr I reporter strain AH1677 dose range (FIG. 3). Format: cell-based. As to conditions: strain AH1677, fluorescence (FLD) of the gene reporter. As to the method:
Strain AH1677 was treated with a range of doses of SF6, SF7, and a combination of the two. OD refers to growth, while FLD refers to fluorescence of the gene reporter. […] The combined effects of SF6 and SF7 are additive; a dose 4 μg/mL SF6+4 μg/mL SF7 has the same effect as an 8 μg/mL dose of either.
(§1) Fractions were tested for quorum quenching activity against all four agr types agr P3-YFP reporter strains AH1677 (type I), AH430 (type II), AH1747 (type III), and AH1872 (type IV). Sample stock solutions were dissolved in DMSO at a concentration of 2 mg/mL. Overnight cultures of reporter strains that were grown in TSB supplemented with chloramphenicol (Cam) were inoculated into fresh TSB containing Cam to achieve a working culture OD of 0.0006. Working culture was added to 96-well microtiter plates (Costar 3603) as was sample in order to achieve a final well volume of 200 μL. Mock vehicle (DMSO) treatments were included for each reporter strain. Microtiter plates were incubated at 37° C. with shaking (1250 rpm) in a Stuart SI505 incubator (Bibby Scientific, Burlington, N.J.) with a humidified chamber. Fluorescence (top reading, 493 nm excitation, 535 nm emission, gain 60) and optical density (OD) readings at 600 nm were recorded at 18 h using a Tecan Systems (San Jose, Calif.) Infinite M200 plate reader.

For assay [3], the system named is S. aureus. Briefly: Growth (optical density) of S. aureus. To be noted: at the IC50 concentration of 8 μg/mL. Type of assay: cell-based, Staphylococcus aureus. As to the method:
as §1

In brackets after ≈: the same amount, converted by molar mass.

The values that follow come from US20220152048A1, “Botanical Extracts and Compounds from Castanea Plants and Methods of Use” (Emory University, priority 2019, published 2022).

As for `C=C(C)[C@H](CC[C@H](C)[C@@H]1CC[C@]2(C)[C@H]3[C@H](O)C[C@@H]4[C@@](C)(C(=O)O)[C@H](O)CC[C@]45C[C@]35CC[C@@]12C)OO` [Compound 2], the concentration for half-maximal inhibition (IC50) in assay [1] was 8 µg/mL (≈ 15.9 µM). Further, the “activity in agr I reporter strain as compared to parent fraction and positive control 224C-F2c” value in assay [2] is listed as “slightly reduced”. The “growth inhibitory effects on S. aureus” value in assay [3] is given as “no growth inhibitory effects”.

What is called IC50 is the concentration needed to halve the response being measured.
